System: delta-5-desaturase
Assay: Two-week feeding study, AA/DGLA ratio in plasma
Type: in vivo, mice
Details: for Average % decrease in AA/DGLA Ratio in Plasma: mice, 36.7 mg/day sesamol palmitate in safflower oil by gavage, low-fat diet
Experimental: To determine the ability of a sesamol derivative of the present invention to inhibit the formation of arachidonic acid, a two-week feeding study was done with two groups of mice with 8 mice in each group. We mixed 4.4 g of sesamol palmitate into 60 ml of safflower oil. This provided a concentration of sesamol palmitate of 73.3 mg/ml. The mice in the sesamol group received 500 μl each day (36.7 mg) via gavage of the sesamol palmitate compound in safflower oil whereas the control group received 500 μl of the safflower oil control. Both groups were maintained on a low-fat diet. 200 μl of blood was drawn at three time points (0, 1, and 2 weeks) for analysis of the fatty acid composition in the plasma.
Since the sesamol derivative, sesamol palmitate, inhibits the enzyme delta-5-desaturase that converts dihomo gamma linolenic acid (DGLA) to arachidonic acid (AA), we choose to look at the decrease in the AA/DGLA ratio as an indication of efficacy of sesamol palmitate in inhibiting the key enzyme. The percent difference between the AA/DGLA ratio in each […] was determined at the starting point and at days 7 and 14. The percent differences in the AA/DGLA per each rat in the active and placebo groups were then averaged.

CCCCCCCCCCCCCCCC(=O)Oc1ccc2c(c1)OCO2 [Sesamol Palmitate]
Average % decrease in AA/DGLA Ratio in Plasma (Days 0-7): −25.4%
Average % decrease in AA/DGLA Ratio in Plasma (Days 0-14): −23.4%
Average decrease in the AA/DGLA ratio relative to placebo group (active group versus placebo group): approximately double

From patent US20170014432A1, “COMPOSITIONS AND METHODS FOR REDUCING CHRONIC LOW-LEVEL INFLAMMATION” (priority 2014, published 2017)
